Earlier results in patent publication US20180271924A1, “COMPOUND AND METHOD FOR REDUCING INFLAMMATION, PAIN, ALLERGY, FLU AND COLD SYMPTOMS” (priority 2018, published 2018).
Converted amounts (≈) assume the structure as drawn. Read-outs that look alike come from different tables or passages of the source.

Experiments:
[1] = subcutaneous
[2] = extract 100, 300, 500 mg/kg
[3] = human studies
[4] = not given; remark: listed apart in the source
[5] = for pain relief, THC versus codeine: 36 cancer pain patients, 20 mg THC, 120 mg codeine
[6] = 5 mg THC; for analgesic effect: 50 mg codeine
[7] = 50 mg THC daily
[8] = not given; remark: listed apart in the source
[9] = not given; remark: listed apart in the source
[10] = test system: mu-, delta- and kappa-opioid binding sites
[11] = DPPH
[12] = 200 mg/kg
[13] = extract 100, 300, 500 mg/kg; diazepam 0.1-1 mg/kg; caffeine 10, 30, 100 mg/kg
[14] = extract 100, 300, 500 mg/kg; diazepam 0.1-1 mg/kg
[15] = extract 100, 300, 500 mg/kg; diclofenac 10, 30, 100 mg/kg; 20 minutes observation
[16] = extract 100-500 mg/kg; diclofenac 10-100 mg/kg; morphine 1-10 mg/kg
[17] = extract 100, 300, 500 mg/kg; remark: listed apart in the source
[18] = 20.0 mg/kg
[19] = 0.5 mg/kg
[20] = test system: dividing and non-dividing cells
[21] = for time of peak analgesic effect: pseudoakuammigine 5.0 mg/kg p.o., morphine 1.0 mg/kg s.c., indomethacin 2.5 mg/kg p.o.
[22] = extract 300, 500 mg/kg
[23] = anesthetized rats; reversed by naloxone
[24] = mitragynine 2 mg/mL
[25] = not given; remark: listed apart in the source
ORL1-binding sites = ORL1-binding sites (Cavia porcellus, UniProt P47748)
[26] = not given; remark: listed apart in the source
opioid receptors = details: antagonised by naloxone
mast cells = details: induced by compound 48/80
[27] = mouse, in vivo

Chain of ORL1-binding sites (P47748 whole entry): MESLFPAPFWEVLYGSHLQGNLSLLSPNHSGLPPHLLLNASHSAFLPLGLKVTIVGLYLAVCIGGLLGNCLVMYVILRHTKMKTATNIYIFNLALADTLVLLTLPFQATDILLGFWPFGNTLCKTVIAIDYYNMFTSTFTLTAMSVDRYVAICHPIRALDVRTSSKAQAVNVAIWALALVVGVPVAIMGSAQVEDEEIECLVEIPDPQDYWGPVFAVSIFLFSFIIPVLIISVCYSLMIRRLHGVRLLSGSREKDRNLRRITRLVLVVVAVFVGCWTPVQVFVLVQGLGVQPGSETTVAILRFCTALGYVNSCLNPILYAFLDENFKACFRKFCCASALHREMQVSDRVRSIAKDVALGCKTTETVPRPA

Compound: CC[C@@H]1CN2CC[C@@]3(O)C(=Nc4cccc(OC)c43)[C@@H]2C[C@@H]1/C(=C\OC)C(=O)OC [7-hydroxymitragynine]
- gastrointestinal transit [1]: inhibition of the gastrointestinal transit

Compound: CN1[C@@H]2CC[C@H]1C[C@@H](OC(=O)C(CO)c1ccccc1)C2 (some centres unmarked) [Atropine]
- protection against acetylcholine-induced bronchoconstriction and cough [2]: significantly (P<0.05-0.0001) protected

Compound: C=C(C)[C@@H]1CCC(C)=C[C@H]1c1c(O)cc(CCCCC)cc1O [CBD, cannabidiol]
- effectiveness at inhibition of PBQ-induced writhing (oral, 100 mg/kg): most effective

Compound: CCCCCc1cc(O)c2c(c1)OC(C)(C)c1ccc(C)cc1-2 [CNB, cannabinol]
- inhibition of PBQ-induced writhing (doses higher than 10 mg/kg): 40%

Compound: CCCCCc1cc(O)c2c(c1)OC(C)(C)[C@@H]1CCC(C)=C[C@@H]21 [Delta 1-THC]
- dose of maximal effect in the PBQ test (oral): 10 mg/kg

Compound: CC(=O)Oc1cc(O[C@H](C)CCCc2ccccc2)cc2c1[C@@H]1C[C@H](O)CC[C@H]1[C@H](C)N2 [Levonantradol]
- analgesia versus placebo [3]: superior to placebo
- sedation [3]: almost half the patients reported sedation
- pain relief versus placebo ([4]; 1.5, 2, 2.5, 3 mg intramuscular, 56 patients): all doses were significantly superior to placebo
- patients reporting at least one side-effect ([4]; in vivo): 57%

Compound: CCCCCc1cc(O)c2c(c1)OC(C)(C)[C@@H]1CCC(C)=C[C@@H]21 [THC, delta-9-tetrahydrocannabinol]
- pain relief versus placebo ([5]; 10 cancer pain patients, at doses of 15 and 20 mg): pain relief significantly superior to placebo
- pain relief, THC versus codeine [5]: equally effective
- analgesia versus placebo [3]: significantly superior to placebo
- time of peak analgesia [3]: around 5 hours
- effect on spasticity [6]: significant effect on spasticity
- analgesic effect [6]: analgesic effect in comparison with placebo
- morphine requirement [7]: morphine requirement was significantly reduced (P<0.01)

Compound: COc1ccc2cc3[n+](cc2c1OC)CCc1cc2c(cc1-3)OCO2 [Umbellatine, umbellatine]
- analgesic activity, hot plate ([8]; 10-300 mg/kg): dose-dependently active
- analgesic activity, hot plate ([8]; 200 and 300 mg/kg): comparable in efficacy to that obtained with 6 mg/kg of morphine
- analgesic activity, tail-flick ([9]; 100 mg/kg): clearly active
- analgesic activity, tail-flick ([9]; 200 and 300 mg/kg): comparable in efficacy to those of 6 mg/kg of morphine

Compound: COC(=O)C1=CO[C@@H](C)[C@@H]2CN3CCc4c([nH]c5ccccc45)[C@H]3C[C@H]12 [akuammigine]
- opioid binding (words) [10]: no opioid binding
- opioid binding (words) ([10]; listed as Akuammigine): no affinity for any of the opioid binding sites

Compound: O=C1O[C@H]([C@@H](O)CO)C(O)=C1O [ascorbic acid]
- EC50 (free radical scavenging) [11]: 1.07 µg/mL (≈ 6.08 µM)

Compound: CC(=O)Oc1ccccc1C(=O)O [aspirin]
- mean percentage antipyrexia [12]: 29.0%

Compound: Cn1c(=O)c2c(ncn2C)n(C)c1=O [caffeine]
- effect in open arm test [13]: anxiogenic effect

Compound: COc1ccc2c3c1O[C@H]1[C@@H](O)C=C[C@H]4[C@@H](C2)N(C)CC[C@@]341 [codeine]
- pain relief, THC versus codeine [5]: equally effective
- analgesic effect [6]: analgesic effect in comparison with placebo

Compound: CN1C(=O)CN=C(c2ccccc2)c2cc(Cl)ccc21 [diazepam]
- effect in open arm test [13]: dose dependently and significantly increased the percentage of open arm entries
- frequency of central zone entries [14]: dose dependently increased the frequency of central zone entries

Compound: O=C(O)Cc1ccccc1Nc1c(Cl)cccc1Cl [diclofenac]
- abdominal writhes [15]: suppressed the writhing
- tail withdrawal latency / antinociceptive effect [16]: increased tail withdrawal latencies

Compound: COc1ccc2c3c1O[C@H]1[C@@H](O)CC[C@H]4[C@@H](C2)N(C)CC[C@@]341 [dihydrocodeine]
- cough count [17]: dose-dependently reduced (P<0.05) cough count
- latency of cough [17]: increased significantly (P<0.01) the latency of cough

Compound: CN1CC[C@]2(c3cccc4c3N[C@@H]3N(C)CC[C@]43[C@@]34CCN(C)[C@@H]3Nc3ccccc34)c3ccccc3N[C@H]12 [hodgkinsine]
- analgesic activity, hot-plate [18]: comparable with 6.0 mg/kg of morphine
- analgesic activity, tail-flick [19]: comparable to that of 6.0 mg/kg of morphine
- cytotoxicity [20]: low cytotoxicity

Compound: COc1ccc2c(c1)c(CC(=O)O)c(C)n2C(=O)c1ccc(Cl)cc1 [indomethacin, reference compound]
- ED50 (analgesic) ([21]; on molar basis): 6.3 muM
- time of peak analgesic effect [21]: 60 min

Compound: COc1ccc(CN(CCN(C)C)c2ccccn2)cc1 [mepyramine]
- histamine-induced bronchoconstriction and cough [22]: reduced significantly (P<0.01-0.0001) bronchoconstriction and cough induced by histamine

Compound: CC[C@@H]1CN2CCc3c([nH]c4cccc(OC)c34)[C@@H]2C[C@@H]1/C(=C\OC)C(=O)OC [mitragynine]
- gastric acid secretion [23]: inhibition of 2-deoxy-D-glucose-stimulated gastric acid secretion in a dose dependent manner
- nerve conduction, compound nerve action potential [24]: blocked the nerve conduction
- toxicity ([25]; dose levels of 800-900 mg/kg in rodents): no toxicity
- lethality ([25]; oral 200 mg/kg, rats): lethal effects

Compound: CN1CC[C@]23c4c5ccc(O)c4O[C@H]2[C@@H](O)C=C[C@H]3[C@H]1C5 [morphine, reference compound]
- tail withdrawal latency / antinociceptive effect [16]: significant (P<0.0001) dose dependent increase in tail withdrawal latencies
- ED50 (analgesic) ([21]; on molar basis): 2.9 muM
- time of peak analgesic effect [21]: 30 min

Compound: CCCCCc1cc(O)cc(O)c1 [olivetol]
- dose of maximal effect in the PBQ test (oral): about 100 mg/kg

Compound: C/C=C1/CN2CC[C@@]34c5ccccc5N(C)[C@]35OC[C@@]4(C(=O)OC)[C@H]1C[C@H]25 [pseudoakuammigine]
- affinity for ORL1-binding sites (words) (ORL1-binding sites): little affinity
- opioid binding (words) [10]: low affinity
- opioid binding (words) ([10]; listed as Pseudoakuammigine): bound equally to both mu and delta-opioid binding sites
- maximal inhibitory effect (anti-inflammatory) ([26]; 50 mg kg, p.o.): 44%
- activity on carrageenan-induced paw oedema ([26]; 1.0, 5.0, 50 mg/kg p.o.): dose-dependent inhibitory activity
- ED50 (analgesic) ([21]; on molar basis): 10 muM
- times less potent than indomethacin as an analgesic ([21]; on molar basis): 1.6 times
- times less potent than morphine as an analgesic ([21]; on molar basis): 3.5 times
- time of peak analgesic effect [21]: 180 min
- effect on electrically-induced contractions (opioid receptors): inhibited the electrically-induced contractions

Compound: O=C(O)c1cc(=O)c2c(OCC(O)COc3cccc4oc(C(=O)O)cc(=O)c34)cccc2o1 [sodium cromoglicate]
- mast cell degranulation (mast cells): reduce significantly (P<0.01) mast cell degranulation
- tracheal phenol red secretion (muco-suppressant) [27]: caused a reduction (P<0.01) in tracheal phenol red secretion
